The record followed here is EP1900728A1 (Genecare Research Institute Co., Ltd, priority 2005, dated 2006).

pIC50: −log10 of the molar value.

This assay deals with T1, IκBα ubiquitinating enzyme (SCF complex: ROC1, Cullin1, Skp1, His-TrCP1; with E1, UbcH5b) (Homo sapiens, UniProt P62877+P63208+Q13616+Q9Y297).
T1 construct: His (polyhistidine); made in house; host or cells: insect cells (baculovirus) for the SCF complex and His-E1; E. coli for His-UBCH5b
T1 sequence (Q9Y297 whole entry): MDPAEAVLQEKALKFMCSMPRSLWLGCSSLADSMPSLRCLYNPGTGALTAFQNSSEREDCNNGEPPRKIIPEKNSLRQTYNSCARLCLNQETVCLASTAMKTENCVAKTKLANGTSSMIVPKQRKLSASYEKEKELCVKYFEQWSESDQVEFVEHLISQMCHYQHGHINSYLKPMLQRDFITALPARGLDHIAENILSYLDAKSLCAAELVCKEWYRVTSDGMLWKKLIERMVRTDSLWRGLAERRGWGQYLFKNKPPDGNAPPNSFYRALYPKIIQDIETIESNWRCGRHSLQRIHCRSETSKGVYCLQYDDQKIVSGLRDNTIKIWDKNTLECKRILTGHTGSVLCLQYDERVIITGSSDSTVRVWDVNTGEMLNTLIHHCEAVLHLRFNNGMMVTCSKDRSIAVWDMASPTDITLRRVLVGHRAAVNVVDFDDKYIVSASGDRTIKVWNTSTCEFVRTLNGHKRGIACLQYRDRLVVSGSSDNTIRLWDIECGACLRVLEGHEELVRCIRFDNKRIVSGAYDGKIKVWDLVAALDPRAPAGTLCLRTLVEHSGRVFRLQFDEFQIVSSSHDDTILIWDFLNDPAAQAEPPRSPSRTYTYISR
T1 sequence (Q13616 whole entry): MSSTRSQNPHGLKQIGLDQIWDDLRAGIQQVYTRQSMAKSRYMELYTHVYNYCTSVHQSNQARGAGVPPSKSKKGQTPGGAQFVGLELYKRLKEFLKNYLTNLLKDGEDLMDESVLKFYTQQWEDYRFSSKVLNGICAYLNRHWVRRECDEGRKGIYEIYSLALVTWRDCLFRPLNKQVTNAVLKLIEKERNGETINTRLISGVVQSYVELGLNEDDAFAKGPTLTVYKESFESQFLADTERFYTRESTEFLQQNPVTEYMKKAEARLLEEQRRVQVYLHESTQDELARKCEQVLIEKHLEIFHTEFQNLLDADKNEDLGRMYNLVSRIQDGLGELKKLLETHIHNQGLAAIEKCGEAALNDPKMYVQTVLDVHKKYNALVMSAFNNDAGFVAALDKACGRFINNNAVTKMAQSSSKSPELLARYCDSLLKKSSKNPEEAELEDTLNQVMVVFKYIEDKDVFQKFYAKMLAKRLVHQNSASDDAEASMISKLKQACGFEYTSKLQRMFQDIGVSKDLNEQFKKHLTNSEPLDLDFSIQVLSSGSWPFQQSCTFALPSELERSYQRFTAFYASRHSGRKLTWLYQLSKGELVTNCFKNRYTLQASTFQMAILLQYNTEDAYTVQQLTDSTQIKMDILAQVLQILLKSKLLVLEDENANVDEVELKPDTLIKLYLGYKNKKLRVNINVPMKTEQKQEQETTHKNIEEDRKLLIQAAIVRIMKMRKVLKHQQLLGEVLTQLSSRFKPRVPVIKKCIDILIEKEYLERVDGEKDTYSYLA
T1 sequence (P63208 whole entry): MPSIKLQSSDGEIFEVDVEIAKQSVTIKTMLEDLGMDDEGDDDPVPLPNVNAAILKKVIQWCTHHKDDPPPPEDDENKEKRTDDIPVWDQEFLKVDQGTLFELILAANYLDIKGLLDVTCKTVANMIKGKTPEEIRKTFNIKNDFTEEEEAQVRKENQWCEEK
T1 sequence (P62877 whole entry): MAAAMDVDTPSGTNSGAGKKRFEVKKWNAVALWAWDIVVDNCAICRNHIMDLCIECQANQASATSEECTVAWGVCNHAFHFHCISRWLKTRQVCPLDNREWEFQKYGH
Put plainly: Measurement of ubiquitinating enzyme activity (IκBα ubiquitination, time-resolved fluorescence with Eu(K)-labeled ubiquitin and XL665-labeled anti-GST antibody). The assay is classed as biochemical. The following applies: enzyme activity inhibition test, method (1), Table 5; read-out: EVALUATION
As for the experimental part: Method 1: Measurement of ubiquitinating enzyme activity
A recombinant vector His-UBCH5b containing a polyhistidine tag (His) and UBCH5b was prepared. E. coli was transformed with the vector, the protein was expressed, and affinity purification was carried out using Ni-NTA agarose (Qiagen). Four types of recombinant baculoviruses (ROC1, Cullin1, Skp1, and His-TrCP1) were prepared for the SCF complex protein, insect cells were infected in quadruplicate for expression, and affinity purification was carried out using Ni-NTA agarose. Recombinant baculoviruses His-IKKβ, His-E1 were prepared. The insect cells were infected with each of those for expression, and affinity purification was carried out using Ni-NTA agarose. A recombinant vector GST-IκBα was prepared by fusing glutathione-S-transferase tag (GST) and IκBα, E. coli was transformed with the vector for the protein expression, and affinity purification was carried out using glutathione sepharose (Amersham Biosciences). Genetic transformants were prepared by PCR amplification followed by recombination, all of which were based on published human-derived sequences.
Phosphorylation reaction of IκBα was performed by incubating the above-mentioned assay buffer (50 mM Tris-HCl (pH7.4), 2 mM ATP, 5 mM MgCl2, 0.5 mM DTT, 0.1% BSA) containing IκBα and IKKβ at room temperature for 1 hour. Ubiquitination reactions were carried out as follows. Compound samples at various concentrations, ubiquitin, Eu (K)-labeled ubiquitin, E1, UbcH5b, and SCF complex were added to phosphorylated IκBα, and then this was incubated at room temperature for 30 minutes. The reaction was terminated by adding EDTA, the above-mentioned revelation buffer (100 mM phosphate buffer (pH7.0), 0.5 M KF, 0.1% BSA) containing XL665-labeled anti-GST antibody was added and this was left to stand at room temperature for 2 hours. Measurements were made using ARVO-HTS (Perkin Elmer). The ratio of fluorescence intensities at 620 nm and 665 nm (Em 665 nm/Em 620 nm x 10,000) with excitation light at 337 nm was measured.
The ubiquitination level without the addition of a compound sample was used as the control value, and the level in the absence of SCF complex was used as the blank value for the assays. Inhibitory activities of the compounds were indicated as % inhibition = 100 - (value with a compound sample added - blank value) / (control value - blank value) x 100. IC50 was indicated as the concentration of the compound showing 50% inhibition. Eu (K)-labeled ubiquitin, XL665-labeled anti-GST antibody, and XL665-labeled anti-His antibody were purchased from CIS bio international. Costar solid black plates (96 wells) were used for the assays.
As for `CC1=NN(c2ccc(C(=O)NCc3ccc4c(c3)OCO4)cc2)C(=O)/C1=C\c1ccc2c(c1)OCCO2` [Compound 397], the pIC50 is 4.70 to 5.00. The value for `CC1=NN(c2ccc(C(=O)O)cc2)C(=O)/C1=C\c1ccc(N2CCC(CO)CC2)cc1` [Compound 426] was 4.70 to 5.00. Consider `CC1=NN(c2cccc(C(=O)O)c2)C(=O)/C1=C\c1ccc(N2CCN(S(C)(=O)=O)CC2)cc1` [Compound 447], for which the pIC50 is greater than 5.00. In the case of `CC1=NN(c2ccc(S(N)(=O)=O)cc2)C(=O)C1=Cc1c[nH]c2ccc(Cl)cc12` [Compound 146], the pIC50 was greater than 5.00.

Consider `O=C1/C(=C\c2cccc3nccnc23)C(C2CC2)=NN1c1ccccc1` [Compound 72], for which the pIC50 is greater than 4.40. Regarding `CC1=NN(c2cccc(C(=O)O)c2)C(=O)/C1=C\c1ccoc1` [Compound 418], the pIC50 is 4.70 to 5.00.

In the case of `COC(=O)N1CCN(c2ccc(/C=C3\C(=O)N(c4ccccc4)N=C3C)cc2)CC1` [Compound 95], the pIC50 was greater than 4.40. On to `CC1=NN(c2cccc(C(=O)O)c2)C(=O)/C1=C\c1ccc(S(=O)(=O)O)o1` [Compound 520], for which the pIC50 was 4.70 to 5.00. For the molecule `COCC1=NN(c2ccccc2)C(=O)/C1=C\c1ccc(CO)o1` [Compound 7], the pIC50 was greater than 4.40. Consider `COc1cc(/C=C2/C(=O)N(c3cccc(N)c3)N=C2C)ccc1O` [Compound 198], for which the pIC50 is greater than 4.40.

Regarding `COc1cc(/C=C2\C(=O)N(C)N=C2C)ccc1O` [Compound 132], the pIC50 is greater than 4.40. `CC1=NN(c2ccc(S(N)(=O)=O)cc2)C(=O)/C1=C\c1ccccc1O` [Compound 219]: the pIC50 was greater than 4.40. Take `COc1cc(/C=C2\C(=O)N(c3cccc(S(N)(=O)=O)c3)N=C2C)ccc1OCC1CC1` [Compound 160]: the pIC50 is greater than 4.40. As to `COc1ccccc1-c1ccc(/C=C2\C(=O)N(c3cccc(C(=O)O)c3)N=C2C)o1` [Compound 487], the pIC50 is greater than 4.40. In the case of `CC1=NN(c2ccc(C(=O)N3CCOCC3)cc2)C(=O)/C1=C\c1ccc2c(c1)OCCO2` [Compound 386], the pIC50 was 4.70 to 5.00. As for `NS(=O)(=O)c1ccc(N2N=C(C3CC3)/C(=C/c3ccc(-n4cncn4)cc3)C2=O)cc1` [Compound 111], the pIC50 was greater than 4.40.

For the molecule `CC1=NN(c2ccccc2)C(=O)/C1=C\c1ccc(OCCCN(C)C)cc1` [Compound 217], the pIC50 is greater than 4.40. The same measure for `CC1=NN(c2ccc(C(=O)NCC(C)O)cc2)C(=O)C1=Cc1ccc2c(c1)OCCO2` (centres unmarked) [Compound 400]: greater than 4.40.

Regarding `COc1cc(/C=C2\C(=O)N(c3ccc(C(=O)O)cc3)N=C2c2ccc(OC)c(OC)c2)ccc1O` [Compound 332], the pIC50 is 4.70 to 5.00. The same measure for `CC1=NN(c2cccc(C(=O)O)c2)C(=O)C1=Cc1cc2ccccc2n1C` [Compound 359]: greater than 5.00; for `O=C1/C(=C\c2ccc(-n3cccn3)cc2)C(Cc2ccccc2)=NN1c1ccccc1` [Compound 30]: 4.70 to 5.00. For the molecule `CC1=NN(c2cccc(C(=O)O)c2)C(=O)/C1=C\c1ccc(N2CCC(C(=O)O)CC2)cc1` [Compound 424], the pIC50 is greater than 5.00. The value for `CC1=NN(c2cccc(C(=O)N3CCC(CO)CC3)c2)C(=O)/C1=C\c1ccc2c(c1)OCCO2` [Compound 383] was greater than 4.40; that for `O=C1/C(=C\c2ccc3ccccc3c2)C(Cc2ccccc2)=NN1c1ccccc1` [Compound 23] was greater than 4.40. In the case of `CCCCC1=NN(c2cccc(C(=O)O)c2)C(=O)/C1=C\c1ccc2c(c1)OCCO2` [Compound 470], the pIC50 was 4.70 to 5.00. For the molecule `COC(=O)c1ccc(COc2ccc(/C=C3\C(=O)N(c4ccccc4)N=C3C)cc2OC)cc1` [Compound 122], the pIC50 is greater than 4.40.

Regarding `COc1cc(/C=C2\C(=O)N(c3ccc(C(=O)O)cc3)N=C2C)ccc1OCC1CCCCC1` [Compound 406], the pIC50 is 4.70 to 5.00. In the case of `CC1=NN(c2ccc(C(=O)O)cc2)C(=O)C1=Cc1ccc(N2CCNCC2)cc1` [Compound 451], the pIC50 is 4.70 to 5.00.

For `CC1=NN(c2ccc(S(=O)(=O)N3CCC(O)CC3)cc2)C(=O)/C1=C\c1ccc2c(c1)OCO2` [Compound 162], the pIC50 was greater than 4.40.
